Experimental data: ChEMBL document CHEMBL1201862, “PubChem BioAssay data set” (2004)
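How tested: cells in 96-well plates exposed to compound for 48 hours at five concentrations. The concentration for 50% growth inhibition is given as GI50.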 Calls of active or inactive are those of the source. Rule as the data show it: active = GI50 up to about 1.1 µM and inactive = higher.

Columns and labels:
Experiment in all cases: NCI tumour cell line growth inhibition, 48 h
[1] = system: HOP-92
[2] = system: SK-MEL-2
[3] = system: SF-295
[4] = system: K562
[5] = system: SW-620
[6] = system: NCI-H522
[7] = system: OVCAR-5
[8] = system: SK-OV-3
[9] = system: RPMI-8226
[10] = system: OVCAR-3
[11] = system: Malme-3M
[12] = system: SF-539
[13] = system: SK-MEL-5
[14] = system: UACC-257
[15] = system: KM12
[16] = system: SR
[17] = system: MDA-N
[18] = system: PC-3

Compound	GI50 [1]	GI50 [2]	GI50 [3]	GI50 [4]	GI50 [5]	GI50 [6]	GI50 [7]	GI50 [8]	GI50 [9]	GI50 [10]	GI50 [11]	GI50 [12]	GI50 [13]	GI50 [14]	GI50 [15]	GI50 [16]	GI50 [17]	GI50 [18]
N#CCc1ccc(/C(C#N)=C2/OC(=N)C(c3ccc(CC#N)cc3)C2=O)cc1 (configuration not stated)	> 100 µM (inactive)	> 100 µM (inactive)	> 100 µM (inactive)	> 100 µM (inactive)	> 100 µM (inactive)	> 100 µM (inactive)	> 100 µM (inactive)	> 100 µM (inactive)	> 100 µM (inactive)	> 100 µM (inactive)	> 100 µM (inactive)	> 100 µM (inactive)	> 100 µM (inactive)	> 100 µM (inactive)	–	–	–	–
CC(=O)Nc1ccc(-c2nnc(SCC(=O)Nc3ccccc3Cl)o2)cc1	–	> 100 µM (inactive)	> 100 µM (inactive)	> 100 µM (inactive)	> 100 µM (inactive)	> 100 µM (inactive)	> 100 µM (inactive)	> 100 µM (inactive)	–	93.1 µM (inactive)	> 100 µM (inactive)	> 100 µM (inactive)	> 100 µM (inactive)	> 100 µM (inactive)	> 100 µM (inactive)	–	–	–
O=c1[c-](-c2ccccc2)[se]c(-c2ccccc2)[n+]1-c1ccccc1	18.6 µM (inactive)	6.55 µM (inactive)	3.61 µM (inactive)	16.8 µM (inactive)	12.5 µM (inactive)	2.91 µM (inactive)	–	24.2 µM (inactive)	29.1 µM (inactive)	10 µM (inactive)	15.5 µM (inactive)	1.48 µM (inactive)	13 µM (inactive)	12.8 µM (inactive)	10.3 µM (inactive)	–	–	–
Cc1cccc2nc3cccc(C(=O)NCCN(C)C)c3nc12	0.605 µM (active)	1.27 µM (inactive)	0.643 µM (active)	0.363 µM (active)	0.272 µM (active)	–	1.61 µM (inactive)	0.574 µM (active)	–	1.36 µM (inactive)	–	0.292 µM (active)	0.54 µM (active)	0.491 µM (active)	0.641 µM (active)	–	–	–
COC(=O)C1=C(c2ccc3c(c2)OCO3)O[C@H](c2ccc3c(c2)OCO3)[C@H]1COC(C)=O	30.5 µM (inactive)	63 µM (inactive)	34.4 µM (inactive)	35.4 µM (inactive)	> 100 µM (inactive)	–	39.6 µM (inactive)	41 µM (inactive)	60.4 µM (inactive)	55.6 µM (inactive)	53.2 µM (inactive)	61.2 µM (inactive)	24.5 µM (inactive)	55.2 µM (inactive)	62.4 µM (inactive)	32.1 µM (inactive)	–	–
O=C(Nc1ccc(Cl)cc1Cl)OC(Cn1cncn1)c1ccc(Cl)cc1Cl (configuration not stated)	–	19.2 µM (inactive)	17.4 µM (inactive)	15.3 µM (inactive)	16.7 µM (inactive)	16.3 µM (inactive)	–	18.3 µM (inactive)	94.6 µM (inactive)	15.8 µM (inactive)	15 µM (inactive)	17.9 µM (inactive)	16.7 µM (inactive)	17 µM (inactive)	17.2 µM (inactive)	41.3 µM (inactive)	–	–
CSc1s[s+]c(SC)c1[O-]	33 µM (inactive)	32.3 µM (inactive)	47.9 µM (inactive)	3.94 µM (inactive)	17.8 µM (inactive)	15.7 µM (inactive)	> 100 µM (inactive)	> 100 µM (inactive)	–	26.5 µM (inactive)	16.6 µM (inactive)	20.6 µM (inactive)	90.6 µM (inactive)	17.7 µM (inactive)	62.4 µM (inactive)	9.95 µM (inactive)	–	–
NC1=NN(c2ccccc2)C(=O)C1/C(=N\NC(=O)c1cc2ccccc2cc1O)C(=O)Nc1ccc(Cl)c(Cl)c1 (configuration not stated)	32.7 µM (inactive)	55.7 µM (inactive)	35.8 µM (inactive)	28.4 µM (inactive)	33.1 µM (inactive)	16.5 µM (inactive)	44.6 µM (inactive)	–	26 µM (inactive)	5.57 µM (inactive)	33 µM (inactive)	30.9 µM (inactive)	29.5 µM (inactive)	29.7 µM (inactive)	43.6 µM (inactive)	0.0612 µM (active)	–	–
O=C1C=C(Nc2ccc(Br)cc2)c2ccccc2C1=O	–	15.5 µM (inactive)	15.8 µM (inactive)	13.9 µM (inactive)	12.9 µM (inactive)	11.3 µM (inactive)	20.8 µM (inactive)	16.8 µM (inactive)	6.73 µM (inactive)	7.1 µM (inactive)	15.1 µM (inactive)	16 µM (inactive)	–	13.5 µM (inactive)	14.1 µM (inactive)	2.54 µM (inactive)	–	–
COC(=O)Cc1cc(OC)c(OC)cc1Br	> 100 µM (inactive)	> 100 µM (inactive)	> 100 µM (inactive)	> 100 µM (inactive)	> 100 µM (inactive)	> 100 µM (inactive)	> 100 µM (inactive)	> 100 µM (inactive)	> 100 µM (inactive)	> 100 µM (inactive)	> 100 µM (inactive)	–	–	> 100 µM (inactive)	> 100 µM (inactive)	> 100 µM (inactive)	–	–
C[N+](C)(C)CC(=O)N/N=C/c1oc(-c2cccc([N+](=O)[O-])c2)c(-c2cccc([N+](=O)[O-])c2)c1[N+](=O)[O-]	> 100 µM (inactive)	> 100 µM (inactive)	–	> 10 µM (inactive)	31.3 µM (inactive)	50.7 µM (inactive)	> 100 µM (inactive)	> 100 µM (inactive)	21.7 µM (inactive)	–	> 100 µM (inactive)	> 100 µM (inactive)	72.3 µM (inactive)	> 100 µM (inactive)	–	40.1 µM (inactive)	–	–
CCCCCCCCCc1cc(=O)c2c(O)cccc2o1	57.5 µM (inactive)	23.2 µM (inactive)	46.3 µM (inactive)	29.2 µM (inactive)	57.9 µM (inactive)	34.9 µM (inactive)	38.8 µM (inactive)	> 100 µM (inactive)	38.2 µM (inactive)	75.9 µM (inactive)	19.3 µM (inactive)	> 100 µM (inactive)	21 µM (inactive)	36.3 µM (inactive)	40.6 µM (inactive)	37.4 µM (inactive)	–	–
Cc1cc2c(cc1C)[n+]([O-])c(C(=O)C/C(=N/NC(=O)CC#N)C(=O)Nc1ccccc1C(F)(F)F)c(C)[n+]2[O-]	–	39.5 µM (inactive)	95.7 µM (inactive)	35.6 µM (inactive)	50.6 µM (inactive)	18.8 µM (inactive)	62.2 µM (inactive)	> 100 µM (inactive)	–	37 µM (inactive)	3.56 µM (inactive)	50.2 µM (inactive)	–	44.6 µM (inactive)	34 µM (inactive)	–	–	–
COC(=O)[C@H](Cc1ccc(OC(C)(C)C)cc1)N[C@H](C)C(=O)N[C@@H](Cc1ccccc1)C(=O)OCc1ccccc1	> 100 µM (inactive)	–	> 100 µM (inactive)	25.6 µM (inactive)	> 100 µM (inactive)	> 100 µM (inactive)	> 100 µM (inactive)	> 100 µM (inactive)	37.8 µM (inactive)	86.3 µM (inactive)	> 100 µM (inactive)	> 100 µM (inactive)	> 100 µM (inactive)	> 100 µM (inactive)	83.9 µM (inactive)	26.2 µM (inactive)	> 100 µM (inactive)	61.7 µM (inactive)
CC(=O)Nc1ccc(Cl)c(Cl)c1	–	–	> 100 µM (inactive)	> 100 µM (inactive)	> 100 µM (inactive)	> 100 µM (inactive)	–	> 100 µM (inactive)	> 100 µM (inactive)	> 100 µM (inactive)	> 100 µM (inactive)	> 100 µM (inactive)	–	> 100 µM (inactive)	> 100 µM (inactive)	> 100 µM (inactive)	–	–
COc1cc(OC)cc(-c2cc(O)c3cc4c(cc3n2)OCO4)c1	0.314 µM (active)	0.165 µM (active)	0.2 µM (active)	0.15 µM (active)	0.203 µM (active)	0.139 µM (active)	4.35 µM (inactive)	0.27 µM (active)	0.389 µM (active)	0.136 µM (active)	0.426 µM (active)	0.173 µM (active)	0.163 µM (active)	1.96 µM (inactive)	0.17 µM (active)	0.199 µM (active)	–	–
NC1=NS(=O)(=O)Nc2[nH]c(-c3ccccc3)nc21	> 100 µM (inactive)	> 100 µM (inactive)	> 100 µM (inactive)	> 100 µM (inactive)	> 100 µM (inactive)	> 100 µM (inactive)	> 100 µM (inactive)	> 100 µM (inactive)	> 100 µM (inactive)	> 100 µM (inactive)	> 100 µM (inactive)	> 100 µM (inactive)	> 100 µM (inactive)	> 100 µM (inactive)	> 100 µM (inactive)	> 100 µM (inactive)	–	–
CC(=O)c1c(P(=O)(OC(C)C)OC(C)C)nn(-c2ccc([N+](=O)[O-])cc2)c1C	> 100 µM (inactive)	> 100 µM (inactive)	> 100 µM (inactive)	> 100 µM (inactive)	> 100 µM (inactive)	> 100 µM (inactive)	> 100 µM (inactive)	> 100 µM (inactive)	> 100 µM (inactive)	> 100 µM (inactive)	> 100 µM (inactive)	> 100 µM (inactive)	> 100 µM (inactive)	> 100 µM (inactive)	> 100 µM (inactive)	> 100 µM (inactive)	–	–
CC(C)N(C(=O)C12C3C4C1C1C2C3C41C(=O)O)C(C)C (configuration not stated)	–	> 100 µM (inactive)	> 100 µM (inactive)	> 100 µM (inactive)	> 100 µM (inactive)	> 100 µM (inactive)	> 100 µM (inactive)	> 100 µM (inactive)	> 100 µM (inactive)	> 100 µM (inactive)	> 100 µM (inactive)	> 100 µM (inactive)	> 100 µM (inactive)	> 100 µM (inactive)	> 100 µM (inactive)	–	–	–
